In paper PMC5249140, “Delineating Substrate Diversity of Disparate Short-Chain Dehydrogenase Reductase from Debaryomyces hansenii” (PLoS ONE, 2017):

B1: DHK (SDR from Debaryomyces hansenii) (Debaryomyces hansenii CBS767) (protein)
chain: MTRTVFVSGASGFIAQNIVKLLIEKGYNVIGTVRTAEKGENLKKCLASEKFTYEIVPDISVEGAFDKVLEKHSEINVLLHTASPFFYDTTDPENDLVLPAINGTKNILKAVKQYGAQIERVVITSSDAAIYSADDEQNSDLSFNESNWNSISYEDAIKDPIAAYYGAKTFAEKAAWDFVKENNSNFKLTAVNPVYVFGPQAFASEVKGKLNTSNELINTLIKLGPSDLFDNDKGGFIDVRDVAKAHVMAFESEDTINKRLYLTNGHFSTQMMLDIVNKNFPELKGKIPIGNPGTGSQDISTLAKMSNDATRQILNFDFNSLEKVVADTVAQILDARKRTL
notes: full-length codon-optimised synthetic gene in pET28a, N-terminal His6 tag kept, E. coli BL21(DE3), ~39 kDa, monomer

Legend:
[1] = target: T1, DHK (SDR from Debaryomyces hansenii) (Debaryomyces hansenii, UniProt Q6BTD7); test: differential scanning fluorimetry, SYPRO orange; format: binding; settings: 50 μM ligand, 2.5 μM enzyme; apo Tm 28.04°C
T1 construct: gene DEHA2D01496g; full-length codon-optimised synthetic gene in pET28a, N-terminal His6 tag kept, E. coli BL21(DE3), ~39 kDa, monomer

[2] = target: T2, FabG (β-keto ACP reductase) (Synechococcus elongatus, UniProt Q31QF3); test: differential scanning fluorimetry, SYPRO orange; format: binding; settings: 2.5 μM enzyme; apo Tm 58°C, with NADPH 65°C
T2 construct: gene Synpcc7942_0684; codon-optimised synthetic gene in pET28a, N-terminal His6 tag, E. coli BL21(DE3), ~29 kDa

purified protein [3] = substrate: CCOC(=O)CC(=O)CCl; test: purified protein; format: biochemical, Debaryomyces hansenii; settings: 300 μM NADPH, 100 mM sodium phosphate, 100 mM NaCl, pH 7.4, 25°C
purified protein [4] = substrate: NC(=O)C1=CN([C@@H]2O[C@H](COP(=O)(O)OP(=O)(O)OC[C@H]3O[C@@H](n4cnc5c(N)ncnc54)[C@H](OP(=O)(O)O)[C@@H]3O)[C@@H](O)[C@H]2O)C=CC1; test: purified protein; format: biochemical, Debaryomyces hansenii; settings: 2 mM ethyl 4-chloro acetoacetate, 100 mM sodium phosphate, 100 mM NaCl, pH 7.4, 25°C, varied: cofactor

T2 sequence (Q31QF3 entry or part of it): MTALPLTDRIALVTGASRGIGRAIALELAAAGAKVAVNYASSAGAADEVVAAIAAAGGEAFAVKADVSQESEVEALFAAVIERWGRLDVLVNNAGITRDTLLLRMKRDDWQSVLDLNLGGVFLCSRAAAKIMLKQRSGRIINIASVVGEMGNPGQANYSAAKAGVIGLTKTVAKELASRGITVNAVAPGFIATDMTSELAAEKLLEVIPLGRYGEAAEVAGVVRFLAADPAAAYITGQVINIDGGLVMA

| Molecule | ΔTm [1] | Tm shift [2] | Km (purified protein [3]) | Km (purified protein [4]) |
| --- | --- | --- | --- | --- |
| NC(=O)C1=CN([C@@H]2O[C@H](COP(=O)(O)OP(=O)(O)OC[C@H]3O[C@@H](n4cnc5c(N)ncnc54)[C@H](O)[C@@H]3O)[C@@H](O)[C@H]2O)C=CC1 [NADH] | 1.82 °C | – | – | – |
| NC(=O)C1=CN([C@@H]2O[C@H](COP(=O)(O)OP(=O)(O)OC[C@H]3O[C@@H](n4cnc5c(N)ncnc54)[C@H](OP(=O)(O)O)[C@@H]3O)[C@@H](O)[C@H]2O)C=CC1 [NADPH] | 6.05 °C | 7 °C | – | – |
| B1 | – | – | 616.1 µM | 51.09 µM |
